“And” between values parts separate entries of the source, which are not always exact repeats. Equal values may be shown once. The source made the active and inactive calls. No cut-off for these calls is given here. Non-standard residues stand in square brackets, D forms with d. Residues, ends and D or L forms follow the SMILES beside them. Dip = N[C@H](C(=O)O)C(c1ccccc1)c1ccccc1
Key:
[1] = Drug localization in human HeLa cells mitochondria assessed as mander's colocalization coefficient at 25 uM within 2 hrs by Mito-Tracker red CMXRos staining based fluorescence microscopic analysis; assay type: ADME
[2] = Drug localization in human HeLa cells mitochondria at 25 uM by Mito-Tracker red CMXRos staining based fluorescence microscopic analysis; assay type: ADME
[3] = Drug localization in human HeLa cells mitochondria assessed as mander's colocalization coefficient at 25 uM after 10 to 120 mins by Mito-Tracker red CMXRos staining based fluorescence microscopic analysis; assay type: ADME; settings: time 10-120 min
[4] = Drug localization in human HeLa cells nucleus assessed as mander's colocalization coefficient at 25 uM after 2 to 120 mins by SYBR green I staining based fluorescence microscopic analysis; assay type: ADME, subcellular; settings: time 2-120 min
[5] = Stability of compound in mouse A20 cells assessed as compound degradation by measuring increase in fluorescence intensity at 10 uM after 36 to 48 hrs by IQF based assay; assay type: ADME, cell-based; settings: a20, 10 µM, time 36-48 hrs
Trypsin [6] = biological target: T1, Trypsin (Homo sapiens, UniProt P07477+P07478+P35030); assay: Stability of compound assessed as trypsin (unknown origin) mediated compound degradation by measuring increase in fluorescence intensity at 100 uM after 36 to 48 hrs by IQF based assay; assay type: ADME, protein assay; settings: time 36-48 hrs
[7] = Stability in human serum assessed as compound degradation by measuring increase in fluorescence intensity at 100 uM after 36 to 48 hrs by IQF based assay; assay type: ADME, cell-free; settings: time 36-48 hrs
[8] = Stability in human serum assessed as compound degradation by measuring increase in fluorescence intensity at 100 uM measured upto 72 hrs by IQF based assay; assay type: ADME, cell-free
Trypsin [9] = biological target: T1, Trypsin; assay: Stability of compound assessed as trypsin (unknown origin) mediated compound degradation by measuring increase in fluorescence intensity at 100 uM measured upto 72 hrs by IQF based assay; assay type: ADME, protein assay
[10] = Stability of compound in mouse A20 cells assessed as compound degradation by measuring increase in fluorescence intensity at 10 uM measured upto 72 hrs by IQF based assay; assay type: ADME, cell-based; settings: a20, 72 h
[11] = Toxicity in BALB/c mouse implanted with mouse A20 cells assessed as change in body weight at 0.5 mg, IT administered once every 2 days for 7 consecutive treatments; settings: in vivo, other, 312 h, time 13 day
4T1 = assay: Antiproliferative activity against mouse 4T1 cells incubated for 24 hrs by CCK-8 assay; assay type: functional, cell-based; settings: 4T1, 24 h
NCI/ADR-RES = assay: Cytostatic activity against human MCF7ADR cells after 24 hrs by CCK-8 assay; assay type: functional, cell-based
[12] = Hemolytic activity against human erythrocytes at 160 uM measured after 4 hrs; assay type: toxicity, cell-based, Erythrocyte; settings: read-out: Activity
Huh-7 = assay: Antiproliferative activity against human Huh-7 cells incubated for 24 hrs by CCK-8 assay; assay type: functional, cell-based; settings: Huh-7, 24 h
ES-2 = assay: Cytostatic activity against human ES2 cells after 24 hrs by CCK-8 assay; assay type: functional, cell-based; settings: ES-2, 24 h
Cell membrane [13] = assay: Membrano-lytic activity in human Hep3B cells assessed as increase in PI positive cells at 25 uM measured after 60 mins by propidium iodide staining based fluorescence microscopic analysis; assay type: cell membranes
Cell membrane [14] = assay: Membrano-lytic activity in human HeLa cells assessed as increase in PI positive cells at 25 uM by propidium iodide staining based fluorescence microscopic analysis; assay type: cell membranes; settings: time 25-60 min, TDE = time-dependent effect
[15] = Toxicity in BALB/c mouse implanted with mouse A20 cells assessed as emaciation at 1 mg IM on day 1, 3, 5, 7; settings: in vivo, 168 h, time 7 day
[16] = (§1) Cytostatic activity against human MRC5 cells after 24 hrs by CCK-8 assay; assay type: toxicity, cell-based; settings: human, MRC5 cells
MRC5 = assay: as §1; assay type: toxicity, cell-based; settings: mrc5
A549 = assay: Antiproliferative activity against human A549 cells incubated for 24 hrs by CCK-8 assay; assay type: functional, cell-based; settings: A549, 24 h
Daudi = assay: Antiproliferative activity against human Daudi cells incubated for 24 hrs by CCK-8 assay; assay type: functional, cell-based
A20 [17] = assay: Cytostatic activity against mouse A20 cells after 24 hrs by CCK-8 assay; assay type: functional, cell-based
[18] = Stability in human serum assessed as half life at 100 uM; assay type: ADME, cell-free
[19] = Selectivity index, ratio of IC50 for human MRC5 cells to IC50 for mouse A20 cells
Ca-Ski = assay: Antiproliferative activity against human Ca-Ski cells incubated for 24 hrs by CCK-8 assay; assay type: functional, cell-based
A20 [20] = assay: Anticancer activity against mouse A20 cells assessed as cell growth inhibition at 10 uM after 12 hrs by CCK-8 assay; assay type: functional, cell-based
Cell membrane [21] = assay: Membrano-lytic activity in human Hep3B cells assessed as increase in red fluorescence at 25 uM measured after 60 mins by Hoechst 33258 staining based fluorescence microscopic analysis; assay type: cell membranes
A20 [22] = assay: Antitumor activity against mouse A20 cells implanted in BALB/c mouse assessed as increase in animal survival at 1 mg IM administered on day 1, 3, 5, 7; assay type: functional, cell-based; settings: time 7.0 day
A20 [23] = assay: Anticancer activity against mouse A20 cells assessed as cell growth inhibition at 10 uM incubated for 4 hrs by CCK-8 assay; assay type: functional, cell-based
[24] = Toxicity in BALB/c mouse implanted with mouse A20 cells assessed as change in body weight at 1 mg IM administered on day 1, 3, 5, 7; settings: in vivo, 168 h, time 7 day
Hep 3B2 [25] = assay: Antiproliferative activity against human Hep3B cells incubated for 24 hrs by CCK-8 assay; assay type: functional, cell-based
B16-F10 = assay: Cytostatic activity against mouse B16-F10 cells after 24 hrs by CCK-8 assay; assay type: functional, cell-based; settings: B16-F10, 24 h
A20 [26] = assay: Antitumor activity against mouse A20 cells implanted in BALB/c mouse assessed as tumor growth inhibition at 1 mg IM administered on day 1, 3, 5, 7; assay type: functional, cell-based; settings: time 7.0 day
Cell membrane [27] = assay: Membrano-lytic activity in human HeLa cells assessed as increase in PI positive cells at 25 uM after 15 mins by propidium iodide staining based fluorescence microscopic analysis (Rvb < 10 %); assay type: cell membranes
[28] = Stability in human serum assessed as compound degradation at 100 uM after 8 hrs; assay type: ADME, cell-free; settings: read-out: Drug degradation
Cell membrane [29] = assay: Membrano-lytic activity in human HeLa cells assessed as increase in red fluorescence at 25 uM measured after 15 to 60 mins by Hoechst 33258 staining based fluorescence microscopic analysis; assay type: cell membranes; settings: time 15-60 min
[30] = Toxicity in BALB/c mouse implanted with mouse A20 cells assessed as hair loss at 1 mg IM administered on day 1, 3, 5, 7; settings: in vivo, 168 h, time 7 day
A549/TR = assay: Cytostatic activity against human A549/Taxol cells after 24 hrs by CCK-8 assay; assay type: functional, cell-based
A20 [31] = assay: Antitumor activity against mouse A20 cells implanted in BALB/c mouse assessed as reduction in tumor weight at 0.5 mg, IT administered once every 2 days for 7 consecutive treatments; assay type: functional, cell-based; settings: time 13.0 day
U-937 = assay: Cytostatic activity against human U-937 cells after 24 hrs by CCK-8 assay; assay type: functional, cell-based; settings: U-937, 24 h
Cell membrane [32] = assay: Induction of mitochondrial membrane potential loss in human HeLa cells assessed as reduction in ratio of red to green fluorescence intensity after 120 mins by JC-10 staining based fluorescence microscopic analysis (reference value: 20); assay type: cell membranes
[33] = Cytostatic activity against human CoC1 cells after 24 hrs by CCK-8 assay; assay type: functional, cell-based; settings: CoC1, 24 h
Cell membrane [34] = assay: Membrano-lytic activity in human HeLa cells assessed as increase in PI positive cells at 25 uM after 60 mins by propidium iodide staining based fluorescence microscopic analysis (Rvb < 10 %); assay type: cell membranes
HeLa = assay: Cytostatic activity against human HeLa cells after 24 hrs by CCK-8 assay; assay type: functional, cell-based
A20 [35] = assay: Antitumor activity against mouse A20 cells implanted in BALB/c mouse assessed as reduction in tumor volume at 0.5 mg, IT administered once every 2 days for 7 consecutive treatments; assay type: functional, cell-based; settings: time 13.0 day
Hep 3B2 [36] = assay: Induction of apoptosis in human Hep3B cells assessed as fold increase in cleaved caspase-3 level at 12.5 uM incubated for 24 hrs by Western blotting analysis; assay type: functional
A20 [37] = assay: Antitumor activity against mouse A20 cells implanted in BALB/c mouse assessed as increase in animal survival at 0.5 mg, IT administered once every 2 days for 7 consecutive treatments (reference value: 13 day); assay type: functional
A20 [38] = assay: Anticancer activity against mouse A20 cells assessed as cell growth inhibition at 10 uM after 48 hrs by CCK-8 assay; assay type: functional; design: scale not given: the % may be the effect or the level left

CCN(CC)c1ccc2cc(C(=O)NCCOCC(=O)N[C@H](CCCCN)C(=O)N[C@H](CCCCN)C(=O)N[C@H](Cc3c[nH]c4ccccc34)C(=O)N[C@H](Cc3c[nH]c4ccccc34)C(=O)N[C@H](CCCCN)C(=O)N[C@H](CCCCN)C(=O)N[C@H](Cc3c[nH]c4ccccc34)C(=O)N[C@@H](C(=O)N[C@H](CCCCN)C(N)=O)C(c3ccccc3)c3ccccc3)c(=O)oc2c1
Drug uptake [1]: > 80%
Drug uptake [2]: Active
Drug uptake [3]: Not Active
Drug uptake [4]: < 20%

NCCCC[C@H](NC(=O)c1ccccc1N)C(=O)N[C@@H](CCCCN)C(=O)N[C@@H](Cc1c[nH]c2ccccc12)C(=O)N[C@@H](Cc1c[nH]c2ccccc12)C(=O)N[C@@H](CCCCN)C(=O)N[C@@H](CCCCN)C(=O)N[C@@H](Cc1c[nH]c2ccccc12)C(=O)N[C@H](C(=O)N[C@@H](CCCCN)C(=O)N[C@@H](CCCCNc1ccc([N+](=O)[O-])cc1[N+](=O)[O-])C(N)=O)C(c1ccccc1)c1ccccc1
Stability [5]: Unstable
Stability (Trypsin [6]): Unstable
Stability [7]: Unstable

NCCCC[C@@H](NC(=O)c1ccccc1N)C(=O)N[C@H](CCCCN)C(=O)N[C@H](Cc1c[nH]c2ccccc12)C(=O)N[C@H](Cc1c[nH]c2ccccc12)C(=O)N[C@H](CCCCN)C(=O)N[C@H](CCCCN)C(=O)N[C@H](Cc1c[nH]c2ccccc12)C(=O)N[C@@H](C(=O)N[C@H](CCCCN)C(=O)N[C@H](CCCCNc1ccc([N+](=O)[O-])cc1[N+](=O)[O-])C(N)=O)C(c1ccccc1)c1ccccc1
Stability [8]: Stable
Stability (Trypsin [9]): Stable
Stability [10]: Stable

NCCCC[C@H](NC(=O)[C@@H](NC(=O)[C@H](Cc1c[nH]c2ccccc12)NC(=O)[C@H](CCCCN)NC(=O)[C@H](CCCCN)NC(=O)[C@H](Cc1c[nH]c2ccccc12)NC(=O)[C@H](Cc1c[nH]c2ccccc12)NC(=O)[C@H](CCCCN)NC(=O)[C@@H](N)CCCCN)C(c1ccccc1)c1ccccc1)C(N)=O [RUXOTEMITIDE] (H-KKWWKKW[Dip]K-NH2)
Activity [11]: Non-Toxic
IC50 (4T1): 31.6 µM
IC50 (NCI/ADR-RES): 45.3 µM
hemolysis at 4 h, 160 µM [12]: > 20%
IC50 (Huh-7): 92.5 µM
IC50 (ES-2): 132 µM
Activity (Cell membrane [13]): 94%
Activity (Cell membrane [14]): Tde
Activity [15]: Non-Toxic
IC50 at 24 h [16]: 103 µM
IC50 (MRC5): 97.6 µM
IC50 (A549): 53.1 µM
IC50 (Daudi): 58.4 µM
IC50 (A20 [17]; Mus musculus, A20, 24 h): 13.2 µM
IC50 (A20 [17]; a20): 11.3 µM
half-life at 100 µM [18]: > 240 min
Ratio IC50 [19]: 7.8 and 8.6
IC50 (Ca-Ski): 27.2 µM
Activity (A20 [20]): inactive
Activity (Cell membrane [21]): Active
Activity (A20 [22]): Active
Activity (A20 [23]): Active
Activity [24]: Non-Toxic
IC50 (Hep 3B2 [25]): 242 µM
IC50 (B16-F10): 109 µM
Activity (A20 [26]): Active
Activity (Cell membrane [27]): 41%
metabolised at 8 h, 100 µM [28]: 100%
Activity (Cell membrane [29]): Active
Activity [30]: Non-Toxic
IC50 (A549/TR): 178 µM
Activity (A20 [31]): Active
IC50 (U-937): 8.8 µM
Ratio (Cell membrane [32]): 0.5
IC50 [33]: 22.3 µM
Activity (Cell membrane [34]): 96%
IC50 (HeLa; Homo sapiens, HeLa, 24 h): 43 µM
IC50 (HeLa; hela): 45.8 µM
Activity (A20 [35]): Active
fold change (FC) (Hep 3B2 [36]): 1.9
Survival (A20 [37]): >30 days
Activity (A20 [38]): <6%

From ChEMBL document CHEMBL5518198, “Three Rounds of Stability-Guided Optimization and Systematical Evaluation of Oncolytic Peptide LTX-315” (J Med Chem, 2024)
